Each structure is given as a SMILES string.

Broadly, the GI50 is the concentration giving 50% growth inhibition. The low end stands for more potent growth inhibition, the high end for less potent growth inhibition.

Common to all, as to experiment: Cytostatic cell culture assay (GI50), SRB
Common to all, as to assay type: cell-based

Experiment [1] relates to BT-549. As to conditions: Homo sapiens, BT-549, 120 h; 5 days incubation. From the text:
(§1) The assay is based on quantification of cell counts by a colorimetric detection of the cell associated proteins. The assay relies on the ability of sulforhodamine B (SRB) to bind to protein components of cells that have been fixed to tissue-culture plates by trichloroacetic acid (TCA). SRB is a bright-pink aminoxanthene dye with two sulfonic groups that bind to basic amino-acid residues under mild acidic conditions, and dissociate under basic conditions. As the binding of SRB is stoichiometric, the amount of dye extracted from stained cells is directly proportional to the cell mass.
(§2) Cell lines: All cell lines were obtained from ATCC (Manassas, Va.). Cultivation media containing Glutamax, and trypsin were purchased from Invitrogen (Carlsbad, Calif.). Doxorubicin, Clofarabine, TCA and SRB were from Sigma-Aldrich (St. Louis, Mo.). Gemcitabine was obtained from Moravek Biochemicals (Brea, Calif.)
(§3) • 1. Trypsinize the sub-confluent cells, count them, and adjust the cell concentrations according to the cell counts listed in Table 1. • 2. Distribute the cells into the 96-well plates in 150 μL of media. Incubate the plates overnight in humidified CO2 incubator at 37° C. • 3. Fix one plate of each cell line with TCA. Discard the cultivation media from the plates by flicking them gently and add 100 ul cold 10% (vol/vol) TCA to each well. Incubate the plates at 4 degree refrigerator for 1 hour. Discard TCA from the plates by flicking them gently. Rinse plates four times in a washing basin containing tap water. Store the plates at room temperature. These plates represent cell counts on day zero. • 4. Prepare a set of medium solutions containing various concentrations of tested compounds by making 5-fold serial dilutions in 96-well plate. Add 50 μL of the diluted compounds per well. Include controls with untreated cells and cells treated with doxorubicin, clofarabine and gemcitabine. • 5. Incubate the plates for 5 days at 37° C. • 6. Fix the plates with TCA. Discard the cultivation media from the plates by flicking them gently and add 100 ul cold 10% (vol/vol) TCA to each well. Incubate the plates at 4 degree refrigerator for 1 hour. Discard TCA from the plates by flicking them gently. Rinse plates four times in a washing basin containing tap water. • 7. Remove excess water by tapping the plates face down, gently on a paper towel. Allow the plates to air-dry at room temperature. • 8. Add 100 ul of 0.057% SRB solution in 1% (vol/vol) acetic acid to each well of the plates fixed with TCA on day zero and five. Leave at room temperature for 30 minutes. • 9. Flick the plates gently to discard SRB. Rinse the plates four times with 1% (vol/vol) Acetic Acid. • 10. Store the plates at 37 degree incubator to facilitate faster drying. • 11. Once the plates are completely dry, add 200 ul of 10 mM Tris base solution (pH 10.5) to each well. Leave at room temperature for 30 minutes for SRB to solubilize. • 12. Measure the OD at 500 nm in a microplate reader • 13. Calculate the percentage of cell-growth inhibition using the next formula: % of control cell growth=100×(ODsample−mean ODday0)/(ODneg control−mean ODday0)
(§4) For GI50 determination, plot a dose-response curve between the compound concentration and percent of growth inhibition. GI50 values can be derived by fitting dose-response curves using sigmoidal dose response equation.

Experiment [2] has as its system A549. The following applies: Homo sapiens, A549, 120 h; 5 days incubation.
Description: as §1, §2, §3, §4

For experiment [3], the system named is Hs-578. As to conditions: Hs578, 120 h; 5 days incubation.
Description: as §1, §2, §3, §4

Experiment [4] has as its system NCI-H23. As to conditions: Homo sapiens, NCI-H23, 120 h; 5 days incubation.
Description: as §1, §2, §3, §4

Experiment [5] has as its system HCT-15. The following applies: Homo sapiens, HCT-15, 120 h; 5 days incubation.
Description: as §1, §2, §3, §4

Experiment [6] concerns Du-145. As to conditions: Homo sapiens, DU-145, 120 h; 5 days incubation.
Description: as §1, §2, §3, §4

Experiment [7] relates to PC3. The following applies: Homo sapiens, PC-3, 120 h; 5 days incubation.
Description: as §1, §2, §3, §4

The subject of experiment [8] is HCT-116. As to conditions: Homo sapiens, HCT-116, 120 h; 5 days incubation.
Description: as §1, §2, §3, §4

On to `COc1nc(N)nc2c1ncn2CCOCP(=O)(N[C@@H](C)C(=O)OC(C)C)N[C@@H](C)C(=O)OC(C)C` [Example 29], for which the GI50 in experiment [1] is 1110 nM; in experiment [2], 387 nM; in experiment [3], 378 nM; in experiment [4], 32 nM; in experiment [5], above 10000 nM; in experiment [6] it was 29 nM. The GI50 in experiment [7] is 325 nM; in experiment [8] it was 988 nM.
As to `CCOC(=O)[C@H](Cc1ccccc1)NP(=O)(COCCn1cnc2c(OC)nc(N)nc21)N[C@@H](Cc1ccccc1)C(=O)OCC` [Example 30], the GI50 in experiment [1] worked out at 23 nM; in experiment [2], 36 nM; in experiment [3], 17 nM; in experiment [4], 10 nM; in experiment [5], 1900 nM; in experiment [6] it was 3 nM. For the same compound, the GI50 in experiment [7] was 103 nM; in experiment [8], 27 nM.
For the compound `CCCCOC(=O)[C@H](Cc1ccccc1)NP(=O)(COCCn1cnc2c(OC)nc(N)nc21)N[C@@H](Cc1ccccc1)C(=O)OCCCC` [Example 31], the GI50 stood at 20 nM in experiment [1]; 6 nM in experiment [2]; 5 nM in experiment [3]; 2 nM in experiment [4]; 604 nM in experiment [5]; 1 nM in experiment [6]. Further, the concentration for 50% growth inhibition (GI50) is 16 nM in experiment [7] and 6 nM in experiment [8].
Turning to `COC(=O)[C@@H](C)NP(=O)(COCCn1cnc2c(OC)nc(N)nc21)N[C@H](C)C(=O)OC` [Example 32], the concentration for 50% growth inhibition (GI50) was above 10000 nM in experiment [1]; 11000 nM in experiment [2]; 6600 nM in experiment [3]; 2620 nM in experiment [4]; above 10000 nM in experiment [5]; 1490 nM in experiment [6]. For the same compound, the GI50 in experiment [7] was 8000 nM; in experiment [8], 22000 nM.
Consider `CCOC(=O)[C@H](C)NP(=O)(COCCn1cnc2c(OC(C)C)nc(N)nc21)N[C@@H](C)C(=O)OCC` [Example 33], for which the concentration for 50% growth inhibition (GI50) in experiment [1] is 423 nM; in experiment [2], 762 nM; in experiment [3], 243 nM; in experiment [4] it was 19 nM; in experiment [5], above 10000 nM; in experiment [6], 18 nM. Also, the GI50 came to 190 nM in experiment [7] and 652 nM in experiment [8].
Turning to `CCCCOC(=O)[C@H](C)NP(=O)(COCCn1cnc2c(OC(C)C)nc(N)nc21)N[C@@H](C)C(=O)OCCCC` [Example 34], the GI50 amounted to 195 nM in experiment [1]; 41 nM in experiment [2]; 31 nM in experiment [3]; 5 nM in experiment [4]; 2650 nM in experiment [5]; 4 nM in experiment [6]. Also, the GI50 in experiment [7] amounted to 21 nM; in experiment [8], 55 nM.
With `CCCCOc1nc(N)nc2c1ncn2CCOCP(=O)(N[C@@H](C)C(=O)OCC)N[C@@H](C)C(=O)OCC` [Example 35], the 50% growth inhibitory concentration (GI50) was determined as 145 nM in experiment [1]; 187 nM in experiment [2]; 46 nM in experiment [3]; 14 nM in experiment [4]; 8900 nM in experiment [5]; 5 nM in experiment [6]. In addition, the concentration for 50% growth inhibition (GI50) stood at 28 nM in experiment [7] and 140 nM in experiment [8].
In the case of `CCOC(=O)[C@H](C)NP(=O)(COCCn1cnc2c(OCC)nc(N)nc21)N[C@@H](C)C(=O)OCC` [Example 37], the GI50 in experiment [1] is 292 nM; in experiment [2], 458 nM; in experiment [3], 198 nM; in experiment [4], 31 nM; in experiment [5] it was above 10000 nM; in experiment [6] it was 23 nM. The GI50 in experiment [7] came out at 146 nM; in experiment [8], 509 nM.
For the compound `CCCCOC(=O)[C@H](C)NP(=O)(COCCn1cnc2c(OCC)nc(N)nc21)N[C@@H](C)C(=O)OCCCC` [Example 38], the GI50 in experiment [1] was found to be 53 nM; in experiment [2], 17 nM; in experiment [3] it was 20 nM; in experiment [4], 2 nM; in experiment [5], 799 nM; in experiment [6], 1 nM. In addition, the results for the GI50 in experiment [7] and in experiment [8] were 2 nM and 12 nM, respectively.
For the compound `CCOC(=O)[C@H](C)NP(=O)(COCCn1cnc2c(OC3CCCCC3)nc(N)nc21)N[C@@H](C)C(=O)OCC` [Example 39], the GI50 is 2650 nM in experiment [1]; 3190 nM in experiment [2]; 697 nM in experiment [3]; 198 nM in experiment [4]; above 10000 nM in experiment [5]; 102 nM in experiment [6]. The values for the concentration for 50% growth inhibition (GI50) in experiment [7] and in experiment [8] were 141 nM and 1480 nM, respectively.
In the case of `CCOC(=O)[C@@H]1CCCN1P(=O)(COCCn1cnc2c(OC3CCCCC3)nc(N)nc21)N1CCC[C@H]1C(=O)OCC` [Example 40], the GI50 in experiment [1] is 1780 nM; in experiment [2] it was 8800 nM; in experiment [3], 276 nM; in experiment [4], 252 nM; in experiment [5], above 10000 nM; in experiment [6], 74 nM. Moreover, the results for the GI50 in experiment [7] and in experiment [8] were 109 nM and 2440 nM, respectively.
Turning to `CCCCCOc1nc(N)nc2c1ncn2CCOCP(=O)(N[C@@H](C)C(=O)OCC)N[C@@H](C)C(=O)OCC` [Example 41], the GI50 turned out to be 301 nM in experiment [1]; 195 nM in experiment [2]; 62 nM in experiment [3]; 11 nM in experiment [4]; 6400 nM in experiment [5]; 1 nM in experiment [6]. Also, the values for the GI50 in experiment [7] and in experiment [8] were 10 nM and 133 nM, respectively.
Consider `CCOC(=O)[C@H](C)NP(=O)(COCCn1cnc2c(OC3CC3)nc(N)nc21)N[C@@H](C)C(=O)OCC` [Example 42], for which the GI50 in experiment [1] stood at 104 nM; in experiment [2] it was 1710 nM; in experiment [3], 162 nM; in experiment [4], 15 nM; in experiment [5], 10000 nM; in experiment [6], 10 nM. The GI50 in experiment [7] turned out to be 237 nM; in experiment [8], 430 nM.
For the compound `CCOC(=O)[C@@H]1CCCC1P(=O)(COCCn1cnc2c(OC3CC3)nc(N)nc21)N1CCC[C@H]1C(=O)OCC` (stereo partly shown) [Example 44], the GI50 came out at 16 nM in experiment [1]; 1250 nM in experiment [2]; 26 nM in experiment [3]; 227 nM in experiment [4]; 9100 nM in experiment [5]; 3 nM in experiment [6]. Further, the GI50 in experiment [7] came out at 183 nM; in experiment [8] it was 154 nM.
Consider `CCOC(=O)[C@H](C)NP(=O)(COCCn1cnc2c(OC3CCC3)nc(N)nc21)N[C@@H](C)C(=O)OCC` [Example 45], for which the GI50 in experiment [1] was 269 nM; in experiment [2] it was 451 nM; in experiment [3], 174 nM; in experiment [4] it was 22 nM; in experiment [5], 8300 nM; in experiment [6], 8 nM. Further, the GI50 in experiment [7] came to 113 nM; in experiment [8] it was 372 nM.
Regarding `CCOC(=O)[C@H](C)NP(=O)(COCCn1cnc2c(OC3CCCC3)nc(N)nc21)N[C@@H](C)C(=O)OCC` [Example 46], the concentration for 50% growth inhibition (GI50) in experiment [1] came to 286 nM; in experiment [2], 474 nM; in experiment [3], 96 nM; in experiment [4], 23 nM; in experiment [5] it was 6300 nM; in experiment [6] it was 17 nM. The results for the GI50 in experiment [7] and in experiment [8] were 85 nM and 269 nM, respectively.
In the case of `CCCCOC(=O)[C@H](C)NP(=O)(COCCn1cnc2c(OC3CCCC3)nc(N)nc21)N[C@@H](C)C(=O)OCCCC` [Example 47], the GI50 was 326 nM in experiment [1]; 103 nM in experiment [2]; 50 nM in experiment [3]; 4 nM in experiment [4]; 1810 nM in experiment [5]; 1 nM in experiment [6]. Further, the values for the 50% growth inhibitory concentration (GI50) in experiment [7] and in experiment [8] were 8 nM and 55 nM, respectively.

Values taken from US8163718B2, “Nucleoside analogues containing phosphonate or phosphonamide groups” (Gilead Sciences, Inc., priority 2008, dated 2012).
